Laboratory results from PMC13104648 (Acta Pharmaceutica Sinica. B, 2025).

Key:
Sprague–Dawley rats = test: Arterial blood pressure in anesthetized rats; settings: 55 nmol/kg i.v.
CHO-hNTSR1 cells = test: Electric cell-substrate impedance sensing; type: cell-based, Chinese hamster; settings: 10 μmol/L; for maximum change factor (normalized resistance): 4000 Hz, n = 3 in duplicate
318 distinct 7TMRs = test: PRESTO-Tango GPCRome panel; type: cell-based, human; settings: 10 μmol/L
rats = settings: chronic neuropathic and inflammatory pain paradigms; cited from earlier work
hNTSR1 (Gα13) = hNTSR1 (Gα13) (Homo sapiens, UniProt P30989); test: BRET^2 G protein dissociation, allosteric modulator assay; type: cell-based; settings: pre-treatment up to 100 μmol/L
Chain of hNTSR1 (Gα13) (P30989 whole entry): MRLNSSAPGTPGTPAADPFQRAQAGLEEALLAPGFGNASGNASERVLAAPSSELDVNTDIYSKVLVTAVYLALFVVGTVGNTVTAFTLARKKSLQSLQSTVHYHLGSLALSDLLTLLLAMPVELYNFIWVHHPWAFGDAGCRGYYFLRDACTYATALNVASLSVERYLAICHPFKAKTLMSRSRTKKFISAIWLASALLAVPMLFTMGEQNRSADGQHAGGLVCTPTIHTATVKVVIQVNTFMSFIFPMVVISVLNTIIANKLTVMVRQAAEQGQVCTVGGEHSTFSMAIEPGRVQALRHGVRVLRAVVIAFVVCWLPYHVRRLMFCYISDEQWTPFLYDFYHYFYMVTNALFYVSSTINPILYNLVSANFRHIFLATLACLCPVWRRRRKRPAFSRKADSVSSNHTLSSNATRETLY

NTSR1 (β-arrestin 1) = NTSR1 (β-arrestin 1) (Homo sapiens, UniProt P30989); test: BRET^2 βarr recruitment, allosteric modulator assay; type: cell-based; settings: pre-treatment up to 100 μmol/L
Chain of NTSR1 (β-arrestin 1) (P30989 whole entry): as above

NTSR1 (β-arrestin 2) = NTSR1 (β-arrestin 2) (Homo sapiens, UniProt P30989); test: as above; type: cell-based; settings: pre-treatment up to 100 μmol/L
Chain of NTSR1 (β-arrestin 2) (P30989 whole entry): as above

mice = settings: cited from earlier work
[1] = anesthetized male rats, mean ± SEM, n = 5
[2] = anesthetized male rats, mean ± SEM

CC[C@H](C)[C@H](NC(=O)[C@H](Cc1ccc(O)cc1)NC(=O)[C@@H]1CCCN1C(=O)[C@H](CCCNC(=N)N)NC(=O)[C@@H](N)CCCNC(=N)N)C(=O)N[C@@H](CC(C)C)C(=O)O [NT(8-13), Neurotensin (8-13), reference compound]
ΔMABP 20 s post-injection (Sprague–Dawley rats; [1]): −29 ± 3 mm Hg
ΔMABP 75 s post-injection (Sprague–Dawley rats; [1]): −7 ± 3 mm Hg
ΔMABP 200 s post-injection (Sprague–Dawley rats; [1]): −28 ± 6 mm Hg

CCCCCCCCCCCCCCCC(=O)N[C@@H](C)C(=O)N[C@@H](CCCNC(=N)N)C(=O)N[C@@H](CCCCN)C(=O)N[C@@H](CCCCN)C(=O)N[C@@H](CO)C(=O)N[C@@H](CC(C)C)C(=O)N[C@@H](CCC(N)=O)C(=O)N[C@@H](CO)C(=O)N[C@@H](CC(C)C)C(=O)N[C@@H](CCC(N)=O)C(=O)N[C@@H](CO)C(=O)N[C@H](C(=O)N[C@H](C(=O)N[C@@H](Cc1c[nH]cn1)C(N)=O)C(C)C)[C@@H](C)O [PP-001]
baseline-to-baseline timeframe (CHO-hNTSR1 cells): 45 min
time of maximum change factor post-stimulation (CHO-hNTSR1 cells): 1110 s
maximum change factor (normalized resistance) (CHO-hNTSR1 cells; mean ± SEM): 1.06 ± 0.01
time at which the trace intercepts / returns to baseline (CHO-hNTSR1 cells; post-stimulation): 2700 s
βarr2 recruitment across a panel of 318 distinct 7TMRs (318 distinct 7TMRs): did not induce βarr2 recruitment
reversing nociceptive behaviors (rats): effective in reversing nociceptive behaviors in rats
delay in hypotensive response (Sprague–Dawley rats): 40 s
time of minimum ΔMABP post-injection (Sprague–Dawley rats): 105 s
minimum ΔMABP of first decline (Sprague–Dawley rats; [2]): −37 ± 4 mm Hg
ΔMABP 300 s post-injection (Sprague–Dawley rats; [2]): −25 ± 3 mm Hg

CCCCCCCCCCCCCCCC(=O)O [Palmitate, palmitate]
effect on potency or efficacy of NT, Gα13 (hNTSR1 (Gα13)): not affected
effect on potency or efficacy of NT, βarr1 (NTSR1 (β-arrestin 1)): not affected
effect on potency or efficacy of NT, βarr2 (NTSR1 (β-arrestin 2)): not affected

COc1ccccc1C1CCN(c2nc(C3(F)CC3)nc3ccc(N(C)CCO)cc23)CC1 [SBI-553]
hypotension (mice): does not induce hypotension in mice

CCCCCCCCCCCCCCCC(=O)N[C@@H](C)C(=O)N[C@@H](C)C(=O)N[C@@H](CCCCN)C(=O)N[C@@H](CCCCN)C(=O)N[C@@H](CO)C(=O)N[C@@H](CC(C)C)C(=O)N[C@@H](CCC(N)=O)C(=O)N[C@@H](CO)C(=O)N[C@@H](CC(C)C)C(=O)N[C@@H](CCC(N)=O)C(=O)N[C@@H](CO)C(=O)N[C@H](C(=O)N[C@H](C(=O)N[C@@H](Cc1c[nH]cn1)C(N)=O)C(C)C)[C@@H](C)O [[Ala^2]PP-001]
resistance response profile (CHO-hNTSR1 cells): completely inactive
change to MABP (Sprague–Dawley rats; n = 5): no change to MABP was observed

CCCCCCCCCCCCCCCC(=O)N[C@@H](C)C(=O)N[C@@H](CCCNC(=N)N)C(=O)N[C@@H](CCCCN)C(=O)N[C@@H](CCCCN)C(=O)N[C@@H](CO)C(=O)N[C@@H](CC(C)C)C(=O)N[C@@H](CCC(N)=O)C(=O)N[C@@H](CO)C(=O)N[C@@H](CC(C)C)C(=O)N[C@@H](CCC(N)=O)C(=O)N[C@@H](CO)C(=O)N[C@H](C(=O)N[C@@H](C)C(=O)N[C@@H](Cc1c[nH]cn1)C(N)=O)[C@@H](C)O [[Ala^13]PP-001]
time of maximum change factor post-stimulation (CHO-hNTSR1 cells): 1962 s
maximum change factor (normalized resistance) (CHO-hNTSR1 cells; mean ± SEM): 1.06 ± 0.02
change factor at 3000 s (50 min) post-stimulation (CHO-hNTSR1 cells; mean ± SEM, n = 3): 1.05 ± 0.03
delay in hypotensive response (Sprague–Dawley rats): 40 s
time of minimum ΔMABP post-injection (Sprague–Dawley rats): 93 s
ΔMABP lower than that of PP-001 at 300 s (Sprague–Dawley rats): 19 ± 5 mm Hg
minimum ΔMABP of first decline (Sprague–Dawley rats; [2]): −36 ± 4 mm Hg
ΔMABP 300 s post-injection (Sprague–Dawley rats; [2]): −44 ± 2 mm Hg
ΔMABP 140 s post-administration (Sprague–Dawley rats; n = 5): −31 ± 4 mm Hg
